Results taken from US5543401A (priority 1994, dated 1996).

Assays:
[1] = Toxic dose of weekly 5-FU and severity of myelosuppression in patients (Table 1); type: in vivo, human; details: for Toxic dose: weekly i.v. 5-FU
Experimental: A representative schedule of clinical administration includes administering weekly i.v. injections of a bolus of 5-FU on an outpatient basis. A typical starting dose is about 500 mg/m^2. Every four weeks the 5-FU dose is increased by 20% until dose-limiting toxicity occurs, which can be indicated by weight loss, or destruction of bone marrow cells and the loss of white blood cells.

[2] = Toxicity of 5-FU 130 mg/kg/wk in CD8FI female mice with breast tumors (FIG. 1); type: in vivo, mouse; details: mouse, in vivo, iv; 5-FU 130 mg/kg/wk i.v. × 3 weeks
Experimental: (§1) FIG. 1 is a plot showing the toxicity of 5-fluorouracil. Toxicity in the plot is measured as a function of the percent of body weight change over time.
(§2) FIG. 1 establishes that 5-FU administered by i.v. in doses of 130 mg/kg/wk to mice is a toxic dose. Toxicity is determined by a change in body weight. Ten CD8FI female mice with breast tumors were treated with weekly doses of 5-fluorouracil in amounts of 130 mg/kg for three weeks. The percent of body weight change of the mice is shown and plotted over a period of approximately 12 days after administration of the last dose. The mice receiving 130 mg/kg of 5-FU suffered a weight loss of approximately 25% and a mortality of 30%.

breast tumors = assay: as above; type: in vivo, mouse
Experimental: as §1, §2

tumor [3] = assay: 5-FU and oral BAU in tumor-bearing CD8FI mice (Table 5); details: 5-FU 150 mg/kg/wk
[4] = Toxicity of 5-FU and tumor weight in tumor-bearing CD8FI female mice (Table 2); details: mouse, in vivo, iv
tumor [5] = assay: as above
BAU toxicity in animals = type: in vivo; details: animal data
Experimental: BAU may be administered orally at the rate of 0.5-2 g/m^2 every 4-6 hours for 3 days starting 1/2-2 hours after 5-FU administration, i.e., between 6 g/m^2 /wk and 36 g/m^2 /wk. Based on animal data BAU is non-toxic. Accordingly, it appears that the amounts of BAU which can be administered are not limited by toxic effects and, therefore, increased amounts of BAU may be administered.

phosphorylase = details: in combination with uridine (Martin et al); cited from earlier work
thymidylate synthetase = details: Goodman & Gilman 5th Ed.; cited from earlier work
tumor [6] = assay: 5-FU and oral uridine rescue in tumor-bearing CD8FI mice (Table 4); type: in vivo, mouse; details: 5-FU 150 mg/kg weekly
Experimental: (§3) Observations were recorded 6 days after the last injection.
(§4) A second trial was repeated by administering uridine 2 hours after the administration of 5-fluorouracil in a concentration of 780 mg/kg and then 2 1/2 hours later at a concentration of 1,040 mg/kg every 8 hr×5.

tumor [7] = assay: 5-FU and oral uridine rescue plus BAU in tumor-bearing CD8FI mice (Table 7); type: in vivo, mouse; details: 5-FU 150 mg/kg
Experimental: as §3, §4

[8] = in vivo, cited from earlier work
[9] = patient 1, weekly 5-FU toxic dose 720 mg/m^2
[10] = patient 2, weekly 5-FU toxic dose 600 mg/m^2
[11] = patient 3, weekly 5-FU toxic dose 600 mg/m^2
[12] = patient 4, weekly 5-FU toxic dose 864 mg/m^2
[13] = patient 5, weekly 5-FU toxic dose 864 mg/m^2
[14] = patient 6, weekly 5-FU toxic dose 864 mg/m^2
[15] = patient 7, weekly 5-FU toxic dose 600 mg/m^2
[16] = patient 8 (first), weekly 5-FU toxic dose 720 mg/m^2
[17] = patient 8 (second), weekly 5-FU toxic dose 720 mg/m^2
[18] = 5-FU 100 mg/kg i.v. weekly × 3, 6 days after last injection
[19] = 5-FU 150 mg/kg i.v. weekly × 3, 6 days after last injection
[20] = then oral UR 600 mg/kg at 2 hrs, then 800 mg/kg q. 8 hr × 5
[21] = then oral UR 780 mg/kg at 2 hrs, then 1,040 mg/kg q. 8 hr × 5
[22] = oral UR 600 then 800 mg/kg q. 8 hr × 5, plus oral BAU 250 mg/kg
[23] = oral UR 780 then 1,040 mg/kg q. 8 hr × 5, plus oral BAU 250 mg/kg

Q: Which “Nadir at toxicity, Platelets” value [1, 9] does the source give for `O=c1[nH]cc(F)c(=O)[nH]1` [5-FU, 5-fluorouracil] here?
A: Its value is 1.51e+08 mL⁻¹.

Q: What about the “Nadir at toxicity, wbc” value [1, 9] of the same compound?
A: Its value is 1.6e+06 mL⁻¹.

Q: What about the “Nadir at toxicity, Platelets” value [1, 10] of the same compound?
A: The value was 1.01e+08 mL⁻¹.

Q: What about the “Nadir at toxicity, wbc” value [1, 10] of the same compound?
A: Its value is 2.7e+06 mL⁻¹.

Q: And the “Nadir at toxicity, Platelets” value [1, 11]?
A: Its value is 7.6e+07 mL⁻¹.

Q: What about the “Nadir at toxicity, wbc” value [1, 11] of the same compound?
A: The value was 1.4e+06 mL⁻¹.

Q: What about the “Nadir at toxicity, Platelets” value [1, 12] of the same compound?
A: The value was 1.1e+08 mL⁻¹.

Q: And the “Nadir at toxicity, wbc” value [1, 12]?
A: The value was 2.8e+06 mL⁻¹.

Q: And the “Nadir at toxicity, Platelets” value [1, 13]?
A: Its value is 2.05e+08 mL⁻¹.

Q: And the “Nadir at toxicity, wbc” value [1, 13]?
A: Its value is 2e+06 mL⁻¹.

Q: And the “Nadir at toxicity, Platelets” value [1, 14]?
A: Its value is 8.4e+07 mL⁻¹.

Q: What about the “Nadir at toxicity, wbc” value [1, 14] of the same compound?
A: Its value is 4.3e+06 mL⁻¹.

Q: And the “Nadir at toxicity, Platelets” value [1, 15]?
A: Its value is 8.2e+07 mL⁻¹.

Q: What about the “Nadir at toxicity, wbc” value [1, 15] of the same compound?
A: The value was 6.7e+06 mL⁻¹.

Q: What about the “Nadir at toxicity, Platelets” value [1, 16] of the same compound?
A: Its value is 9.5e+07 mL⁻¹.

Q: What about the “Nadir at toxicity, wbc” value [1, 16] of the same compound?
A: The value was 4.1e+06 mL⁻¹.

Q: What about the “Nadir at toxicity, Platelets” value [1, 17] of the same compound?
A: Its value is 7.4e+07 mL⁻¹.

Q: And the “Nadir at toxicity, wbc” value [1, 17]?
A: The value was 3.7e+06 mL⁻¹.

Q: And the Toxic dose ([1]; patient 1, WHO 1, prior chemotherapy None)?
A: Its Toxic dose is 720 mg/m^2.

Q: And the Toxic dose ([1]; patient 2, WHO 1, prior chemotherapy None)?
A: Its Toxic dose is 600 mg/m^2.

Q: And the Toxic dose ([1]; patient 3, WHO 0, prior HAI 5-FU)?
A: Its Toxic dose is 600 mg/m^2.

Q: And the Toxic dose ([1]; patient 4, WHO 2, prior chemotherapy None)?
A: The Toxic dose was 864 mg/m^2.

Q: And the Toxic dose ([1]; patient 5, WHO 1, prior chemotherapy None)?
A: Its Toxic dose is 864 mg/m^2.

Q: And the Toxic dose ([1]; patient 6, WHO 1, prior HAI 5-FU)?
A: The Toxic dose was 864 mg/m^2.

Q: What about the Toxic dose ([1]; patient 7, WHO 1, prior TGU) of the same compound?
A: Its Toxic dose is 600 mg/m^2.

Q: What about the Toxic dose ([1]; patient 8 (first), WHO 1, prior chemotherapy None) of the same compound?
A: The Toxic dose was 720 mg/m^2.

Q: And the Toxic dose ([1]; patient 8 (second), WHO 0, prior FAC)?
A: The Toxic dose was 720 mg/m^2.

Q: What about the Mortality [2] of the same compound?
A: Its Mortality is 30%.

Q: What about the weight loss (breast tumors; 5-FU 130 mg/kg/wk i.v. × 3 weeks) of the same compound?
A: Its weight loss is “approximately 25%”.

Q: What about the Toxic dose (breast tumors; i.v., mice) of the same compound?
A: The Toxic dose was 130 mg/kg/wk.

Q: And the “lethality of 5-FU (in words)” value (tumor [3])?
A: The value was “lethal dose”.

Q: What about the MTD [4] of the same compound?
A: Its MTD is 100 mg/kg.

Q: What about the Mortality ([4]; 150 mg/kg) of the same compound?
A: The Mortality was 80%.

Q: And the Mortality (tumor [5]; [18])?
A: Its Mortality is 0/10.

Q: And the “Tumor Weight” value (tumor [5]; [18])?
A: Its value is 688 mgs.

Q: What about the Mortality (tumor [5]; [19]) of the same compound?
A: Its Mortality is 8/10.

Q: What about the “Tumor Weight” value (tumor [5]; [19]) of the same compound?
A: The value was 433 mgs.

Q: What does the source list for `O=c1[nH]c(=O)n(COCCO)cc1Cc1ccccc1` [BAU, 5-benzylacyclouridine]?
A: toxicity (BAU toxicity in animals): non-toxic; effect on uridine breakdown and clearance (phosphorylase): prevents the breakdown of uridine by phosphorylase and the subsequent rapid body clearance of uridine

Q: For `O=c1[nH]c(=O)n([C@H]2C[C@H](O)[C@@H](COP(=O)(O)O)O2)cc1F` [F-dUMP, 5-fluoro-2'-deoxyuridine-5'-phosphate], which “affinity for thymidylate synthetase” value (thymidylate synthetase) is on record?
A: Its value is “unusually great affinity”.

Q: What does the source list for `O=c1ccn([C@@H]2O[C@H](CO)[C@@H](O)[C@H]2O)c(=O)[nH]1` [uridine]?
A: Mortality (tumor [6]; [20]): 4/10; Tumor Weight (tumor [6]; [20]): 242 mgs; Mortality (tumor [6]; [21]): 0/10; Tumor Weight (tumor [6]; [21]): 361 mgs; Mortality (tumor [7]; [22]): 0/10; Tumor Weight (tumor [7]; [22]): 475 mgs; Mortality (tumor [7]; [23]): 1/10; Tumor Weight (tumor [7]; [23]): 434 mgs; side effects of intravenous uridine ([8]; iv): fever and phlebitis; side effects of oral uridine in large doses ([8]; po): irritates the gastrointestinal tract, which frequently causes severe diarrhea; catabolism of uridine [8]: quickly catabolized; plasma uridine levels after large doses of uridine [8]: millimolar or high micromolar uridine levels
